Earlier results as cited in patent US20230071557A1, “STABLE PHARMACEUTICAL COMPOSITIONS OF ROPINIROLE” (ORION CORPORATION, priority 2020, published 2023).
Where a name gives a salt, the structure may show the parent alone.

System: dogs
Conditions: aqueous eye drop solution comprising 10 or 40 mg/ml of ropinirole hydrochloride

## CCCN(CCC)CCc1cccc2c1CC(=O)N2 [ropinirole hydrochloride]
  Vomiting (emesis) in dogs: produced vomiting rapidly and consistently
